Columns and labels:
[1] = system: Sheep Erythrocytes induced Delayed Type Hypersensitivity; experiment: Sheep erythrocytes induced delayed type hypersensitivity (footpad swelling); format: in vivo, mice (ddY); details: Table 4, oral, 4 days, 24 hours after challenge
Experimental: Effect on Sheep Erythrocytes induced Delayed Type Hypersensitivity
40 μl of Sheep erythrocytes adjusted to the concentration of 1×10^7 /40 μl was subcutaneously injected to the right footpad of mice (ddY weighing 25-30 g) and the medicament was administered orally for continuous 4 days including the day, on which sheep erythrocytes were administered.
On the 4th day from the administration day of sheep erythrocytes, 40 μl of sheep erythrocytes adjusted to the concentration of 5×10^8 /40 μl was subcutaneously injected to the left footpad. After 24 hours, both of the thickness of the right and left footpad were measured. Footpad swelling due to the delayed type hypersensitivity was recognized as the difference between the thickness of the left and right footpad. The footpad swelling of the medicament-administration group was compared with that of physiological saline solution-administration group (control group).

[2] = system: Methylated Human Albumin induced Delayed Type Hypersensitivity; experiment: Methylated human albumin induced delayed type hypersensitivity (footpad swelling); format: in vivo, mice (C3H); details: 4 days; for response vs control in vivo at 100 mg/kg / response vs control in vivo at 30 mg/kg / response vs control in vivo at 300 mg/kg: Mus musculus, 96 h
Experimental: Effect on Methylated Human Albumin induced Delayed Type Hypersensitivity
The medicament was administered orally for continuous 4 days including the immunization-day. On the 4th day from the immunization day, 25 μl of 0.1% methylated human albumin aqueous solution was subcutaneously injected to the footpad. After 24 hours, the thickness of the left and right footpad were measured, and the footpad swelling due to the delayed type hypersensitivity was represented as the difference between the thickness of the left and right footpad. The footpad swelling of the medicament-administration group was compared with that of physiological saline solution-administration group.

[3] = system: Plaque-Forming Cells in Spleen against Sheep Erythrocytes; experiment: Plaque-forming cells in spleen against sheep erythrocytes in mice; format: in vivo, mice (Balb/c); details: oral, 4 days; for PFC, % Control: vs physiological saline
Experimental: Effect on Plaque-forming Cells in Spleen against Sheep Erythrocytes in mice
Balb/c mice of 5 weeks old were intravenously immunized with 1×10^8 sheep erythrocytes/mouse. 5 mice were used per group. Medicament was orally administered for 4 days from the day when the mice were immunized. Mice were sacrificed on the 5th day and the numbers of plaque-forming cells (PFC) in the spleen against sheep erythrocytes were determined by Fujiwara's modified method of Cunningham's method ["Method in Immunological Experiment A" edited by Japanese Society for Immunology, page 1272 (1974)].

mice = experiment: Acute toxicity in mice; format: in vivo; details: 7th day
Experimental: The medicament was suspended in 3% "Tween-80" and the suspension was administered orally or intraperitonealy at a dose shown in Table 1 to mice (ddY weighing 20-25 g).

SMILES | % Control of footpad swelling ([1]; 100 mg/kg) [%] | Footpad swelling, mean value ± standard error ([2]; Experiment 2, oral, 100 mg/kg) [× 0.01 mm] | Mortality (mice; intraperitoneal, 1,000 mg/kg) | Footpad swelling, mean value ± standard error ([2]; Experiment 1, oral, 300 mg/kg) [× 0.01 mm] | response vs control in vivo at 300 mg/kg ([2]; po, Experiment 1, 300 mg/kg) [%] | Mortality (mice; oral, 5,000 mg/kg) | Footpad swelling, mean value ± standard error ([2]; Experiment 2, oral, 30 mg/kg) [× 0.01 mm] | Footpad swelling, mean value ± standard error ([2]; Experiment 2, oral, 300 mg/kg) [× 0.01 mm] | response vs control in vivo at 30 mg/kg ([2]; po, Experiment 2, 30 mg/kg) [%] | response vs control in vivo at 100 mg/kg ([2]; po, Experiment 2, 100 mg/kg) [%] | response vs control in vivo at 300 mg/kg ([2]; po, Experiment 2, 300 mg/kg) [%] | further results
Cn1cnc([N+](=O)[O-])c1Sc1ncnc2nc[nH]c12 [Azathioprine, reference compound] | 49.0 | 41.4 ± 1.5 |  |  |  |  |  |  |  |  |  | response vs control in vivo at 100 mg/kg ([2]; Experiment 2, oral, 100 mg/kg): 70.9%
CCOC(=O)Cc1ccc(N)cc1 [Compound 1, Ethyl p-aminophenylacetate] | 85.9 |  | 1/5 |  |  |  |  |  |  |  |  | % Control of footpad swelling ([1]; 30 mg/kg): 79.8%; % Control of footpad swelling ([1]; 300 mg/kg): 77.9%; PFC, mean value ± standard error ([3]; Table 3, 30 mg/kg): 89.4 ± 10.4 × 3,125/spleen; PFC, % Control ([3]; Table 3, 30 mg/kg): 135%; PFC, mean value ± standard error ([3]; Table 3, 100 mg/kg): 60.6 ± 8.6 × 3,125/spleen; PFC, % Control ([3]; Table 3, 100 mg/kg): 91%; PFC, mean value ± standard error ([3]; Table 3, 300 mg/kg): 82.0 ± 5.2 × 3,125/spleen; PFC, % Control ([3]; Table 3, 300 mg/kg): 123%; Mortality (mice; oral, 3,000 mg/kg): 0/5
CCOC(=O)Cc1ccc(NC(C)=O)cc1 [Compound 4, Ethyl 4-acetylaminophenylacetate] | 93.8 |  |  |  |  |  |  |  |  |  |  | % Control of footpad swelling ([1]; 30 mg/kg): 91.5%; % Control of footpad swelling ([1]; 300 mg/kg): 68.4%; Footpad swelling, mean value ± standard error ([2]; Experiment 3, oral, 30 mg/kg): 48.3 ± 2.6 × 0.01 mm; Footpad swelling, mean value ± standard error ([2]; Experiment 3, oral, 100 mg/kg): 49.4 ± 3.5 × 0.01 mm; Footpad swelling, mean value ± standard error ([2]; Experiment 3, oral, 300 mg/kg): 56.5 ± 2.9 × 0.01 mm; response vs control in vivo at 30 mg/kg ([2]; po, Experiment 3, 30 mg/kg): 75.5%; response vs control in vivo at 100 mg/kg ([2]; po, Experiment 3, 100 mg/kg): 77.2%; response vs control in vivo at 300 mg/kg ([2]; po, Experiment 3, 300 mg/kg): 88.3%
CCOC(=O)Cc1ccc(NC(=O)C(C)C)cc1 [Compound 6, Ethyl 4-(isobutyrylamino)phenylacetate] |  |  | 0/5 | 56.8 ± 2.2 | 89.7 | 1/5 |  |  |  |  |  | Footpad swelling, mean value ± standard error ([2]; Experiment 1, oral, 30 mg/kg): 59.0 ± 1.8 × 0.01 mm; Footpad swelling, mean value ± standard error ([2]; Experiment 1, oral, 100 mg/kg): 55.6 ± 1.2 × 0.01 mm; response vs control in vivo at 30 mg/kg ([2]; po, Experiment 1, 30 mg/kg): 93.2%; response vs control in vivo at 100 mg/kg ([2]; po, Experiment 1, 100 mg/kg): 87.8%
CCOC(=O)C(C)c1ccc(NC(C)=O)cc1 (stereo not drawn) [Compound 9, Ethyl 2-(4-acetylaminophenyl)propionate] |  | 55.3 ± 2.0 | 0/5 |  |  |  | 51.4 ± 1.8 | 56.0 ± 2.0 | 88 | 94.7 | 95.9 | Mortality (mice; oral, 1,500 mg/kg): 0/5
CC(=O)Nc1ccc(CC(=O)O)cc1 [Compound 10, 4-Acetylaminophenylacetate] | 85.7 | 41.8 ± 2.5 | 0/5 | 44.5 ± 1.6 | 70.3 | 0/5 | 46.1 ± 1.7 | 42.3 ± 1.8 | 78.9 | 71.6 | 72.4 | % Control of footpad swelling ([1]; 30 mg/kg): 77.0%; % Control of footpad swelling ([1]; 300 mg/kg): 71.6%; PFC, mean value ± standard error ([3]; Table 2, 30 mg/kg): 116.4 ± 8.64 × 2,500/spleen; PFC, % Control ([3]; Table 2, 30 mg/kg): 181%; PFC, mean value ± standard error ([3]; Table 2, 100 mg/kg): 107.2 ± 10.5 × 2,500/spleen; PFC, % Control ([3]; Table 2, 100 mg/kg): 167%; PFC, mean value ± standard error ([3]; Table 2, 300 mg/kg): 82.2 ± 7.0 × 2,500/spleen; PFC, % Control ([3]; Table 2, 300 mg/kg): 128%
CC(=O)Nc1ccc(C(C)(C)C(=O)O)cc1 [Compound 11, 2-(4-Acetylaminophenyl)-2-methylpropionic acid] |  | 55.4 ± 1.8 | 0/5 |  |  | 0/5 | 54.5 ± 1.7 | 51.3 ± 2.3 | 93.3 | 94.9 | 87.8 | 
CC(=O)Nc1ccc(C(C)C(=O)O)cc1 (stereo not drawn) [Compound 12, 2-(4-Acetylaminophenyl)propionic acid] |  | 52.1 ± 1.5 | 0/5 |  |  | 0/5 | 54.5 ± 1.7 | 52.4 ± 1.9 | 93.2 | 89.2 | 89.7 | 
CC(C)C(=O)Nc1ccc(CC(=O)O)cc1 [Compound 13] |  |  | 1/5 | 58.5 ± 2.4 | 92.4 | 0/5 |  |  |  |  |  | Footpad swelling, mean value ± standard error ([2]; Experiment 1, oral, 30 mg/kg): 57.2 ± 1.9 × 0.01 mm; Footpad swelling, mean value ± standard error ([2]; Experiment 1, oral, 100 mg/kg): 58.2 ± 1.9 × 0.01 mm; response vs control in vivo at 30 mg/kg ([2]; po, Experiment 1, 30 mg/kg): 90.4%; response vs control in vivo at 100 mg/kg ([2]; po, Experiment 1, 100 mg/kg): 91.9%
CCCC(=O)Nc1ccc(CC(=O)O)cc1 [Compound 14, 4-n-Butyrylaminophenylacetic acid] |  | 51.8 ± 1.4 | 0/5 |  |  |  | 50.9 ± 2.0 | 56.7 ± 1.5 | 87.2 | 88.7 | 97.1 | 
Cc1ccc(C(=O)Nc2ccc(CC(=O)O)cc2)cc1 [Compound 15, 4-(4-Methylbenzoylamino)phenylacetic acid] |  |  | 5/5 | 57.4 ± 1.5 | 90.7 | 5/5 |  |  |  |  |  | Footpad swelling, mean value ± standard error ([2]; Experiment 1, oral, 30 mg/kg): 54.2 ± 1.7 × 0.01 mm; Footpad swelling, mean value ± standard error ([2]; Experiment 1, oral, 100 mg/kg): 56.7 ± 1.8 × 0.01 mm; response vs control in vivo at 30 mg/kg ([2]; po, Experiment 1, 30 mg/kg): 85.6%; response vs control in vivo at 100 mg/kg ([2]; po, Experiment 1, 100 mg/kg): 89.6%; Mortality (mice; intraperitoneal, 300 mg/kg): 0/5; Mortality (mice; oral, 1,000 mg/kg): 0/5

From US4720506A, “Immunomodulating agent” (Nippon Shinyaku Company, Limited, priority 1982, dated 1988)
